Source: PMC5075052, “Modulation of the Substitution Pattern of 5-Aryl-2-Aminoimidazoles Allows Fine-Tuning of Their Antibiofilm Activity Spectrum and Toxicity” (Antimicrobial Agents and Chemotherapy, 2016)
Read-outs that look alike come from different tables or passages of the source.

Key:
S. aureus ATCC 6538 = test: Monospecies bacterial biofilm inhibition, static peg assay (Calgary device, crystal violet; planktonic OD600); assay type: cell-based, Staphylococcus aureus; conditions: Staphylococcus aureus
Procedure: (§1) A static peg assay, described previously ([27], [74]), was used for bacterial biofilm formation. The Calgary biofilm device consists of a platform carrying 96 polystyrene pegs (Nunc no. 445497) that fits as a microtiter plate lid, with 1 peg hanging into each microtiter plate well (Nunc no. 269789). Twofold serial dilutions of the compounds (dissolved in 100% dimethyl sulfoxide [DMSO] or ethanol) in 100 μl liquid broth (TSB diluted 1/20) per well were prepared in the microtiter plate in duplicate or triplicate with a maximum concentration of 1,600 μM and a minimum concentration of 0.8 μM. Subsequently, an overnight culture of S. Typhimurium ATCC 14028, P. aeruginosa PA14, E. coli TG1, S. epidermidis, S. aureus SH1000, or S. aureus ATCC 6538 (all grown in LB) was diluted 1:100 into TSB diluted 1/20 (or TSB for S. epidermidis, S. aureus SH1000, and S. aureus ATCC 6538), whereas overnight cultures of S. liquefaciens MG44 and B. cepacia LMG1222T were diluted 1:50 into TSB diluted 1/20. P. gingivalis ATCC 33277 cultures were diluted in TSB diluted 1/20 to have a final concentration of 1 × 10^8 cells/ml. Next, 100 μl was added to each well of the microtiter plate, resulting in a total volume of 200 μl medium per well (final concentration range of compounds, 800 μM [2% DMSO or ethanol] to 0.4 μM [0.001% DMSO or ethanol]). In the next step, the pegged lid was placed on the microtiter plate and the plate was incubated for 24 h or 48 h at 25°C or 37°C without shaking. At 37°C, the plates were placed in a sealed container with wet towels on the bottom to prevent evaporation of the growth medium. Biofilms of P. gingivalis ATCC 33277 were grown anaerobically at 37°C for 72 h. During this incubation period, biofilms were formed on the surface of the pegs. After incubation, the optical density at 600 nm (OD600) for the planktonic cells in the microtiter plate was measured using a Synergy MX multimode reader (BioTek, Winooski, VT). This gives a first indication of the effect of the compounds on planktonic growth. For quantification of biofilm formation, the pegs were washed once in 200 μl PBS. The remaining attached bacteria were stained for 30 min with 200 μl 0.1% (wt/vol) crystal violet in an isopropanol-methanol-PBS solution (1:1:18, vol/vol). Excess stain was rinsed off by placing the pegs in a 96-well plate filled with 200 μl distilled water per well. After air drying of the pegs (30 min), the dye bound to the adherent biofilm was extracted with 30% glacial acetic acid (200 μl per well of a 96-well plate). The optical density at 570 nm (OD570) of each well was measured using a Synergy MX multimode reader (BioTek, Winooski, VT). The concentration of each compound needed to inhibit biofilm formation by 50% (BIC50) and the concentration of each compound needed to inhibit planktonic growth by 50% (IC50) were determined from the concentration gradient by using nonlinear curve fitting (GraphPad Prism software, version 5; GraphPad Software, Inc., La Jolla, CA). In the same assay, the effect on planktonic growth was evaluated. The activity was considered biofilm specific if the BIC50 was at least two times lower than the IC50. Data represent the means from at least 3 technical repeats with the corresponding 95% confidence intervals (provided in the supplemental material).

E. coli TG1 = test: Monospecies bacterial biofilm inhibition, static peg assay; assay type: cell-based, Escherichia coli; conditions: Escherichia coli
Procedure: as §1

P. aeruginosa PA14 = test: as above; assay type: cell-based, Pseudomonas aeruginosa; conditions: Pseudomonas aeruginosa
Procedure: as §1

[1] = tested on: E. coli TG1 + P. aeruginosa PA14; test: Mixed-species E. coli-P. aeruginosa biofilm assay (peg, crystal violet); assay type: cell-based, Escherichia coli + Pseudomonas aeruginosa
Procedure: Overnight cultures of E. coli TG1 and P. aeruginosa PA14 were diluted 1/100 in the same vial of TSB diluted 1/20 to form a mixed-culture suspension. Next, 2-fold serial dilutions of the compounds (dissolved in 100% DMSO or ethanol) in 100 μl liquid broth (TSB diluted 1/20) per well were prepared in the microtiter plate of the Calgary biofilm device (Nunc no. 269789) in duplicate or triplicate with a maximum concentration of 1,600 μM and a minimum concentration of 0.8 μM. One hundred microliters of the mixed-culture suspension was added to each well of the microtiter plate, resulting in a total volume of 200 μl medium per well (final concentration range of compounds, 800 μM [2% DMSO or ethanol] to 0.4 μM [0.001% DMSO or ethanol]). The pegged lid was placed on the microtiter plate, and the plate was incubated for 72 h at 37°C, which allowed biofilm formation on the pegs (Nunc no. 269789) of the Calgary biofilm device. After 72 h, the biofilm was colored with crystal violet as described above ([74]). The OD570 (biofilm cells) and OD600 (planktonic cells) were measured, and the BIC50 and the IC50, respectively, were calculated.

[2] = tested on: S. aureus ATCC 6538 + S. epidermidis; test: Mixed-species S. aureus-S. epidermidis biofilm assay (peg, crystal violet); assay type: cell-based, Staphylococcus aureus + Staphylococcus epidermidis; conditions: 37°C
Procedure: Overnight cultures of S. aureus ATCC 6538 and S. epidermidis were grown in LB medium and were diluted 1/200 in the same vial of TSB to form a mixed-culture suspension. Next, 2-fold serial dilutions of the compounds (dissolved in 100% DMSO or ethanol) in 100 μl TSB medium per well were prepared in the microtiter plate (Nunc no. 269789) in duplicate or triplicate with a maximum concentration of 1,600 μM and a minimum concentration of 0.8 μM. One hundred microliters of the mixed-culture suspension was added to each well of the microtiter plate, resulting in a total volume of 200 μl medium per well (final concentration range of compounds, 800 μM [2% DMSO or ethanol] to 0.4 μM [0.001% DMSO or ethanol]). The cells were then incubated for 48 h at 37°C, which allowed biofilm formation on the pegs (Nunc no. 269789) of the Calgary biofilm device. After 24 h, fresh medium with compounds was added to the wells, and after 48 h, the biofilm was colored with crystal violet as described above ([74]). The OD570 (biofilm) and OD600 (planktonic) were measured, and the BIC50 and the IC50, respectively, were calculated.

[3] = ATCC6538, S. aureus ATCC 6538, 37°C, planktonic OD600, read-out: IC50 (concentration needed to inhibit planktonic growth by 50%)
[4] = ATCC6538, S. aureus ATCC 6538, 37°C, read-out: BIC50 (concentration needed to inhibit biofilm formation by 50%)
[5] = TG1, E. coli TG1, 25°C, read-out: BIC50
[6] = TG1, E. coli TG1, 25°C, read-out: IC50 (planktonic growth)
[7] = TG1, E. coli TG1, 37°C, read-out: BIC50
[8] = TG1, E. coli TG1, 37°C, read-out: IC50 (planktonic growth)
[9] = PA14, P. aeruginosa PA14, 25°C, read-out: BIC50
[10] = PA14, P. aeruginosa PA14, 25°C, read-out: IC50 (planktonic growth)
[11] = PA14, P. aeruginosa PA14, 37°C, read-out: BIC50
[12] = PA14, P. aeruginosa PA14, 37°C, read-out: IC50 (planktonic growth)
[13] = mixed E. coli TG1 + P. aeruginosa PA14, 37°C, read-out: IC50 (planktonic growth)
[14] = mixed E. coli TG1 + P. aeruginosa PA14 biofilm, 37°C, read-out: BIC50
[15] = mixed S. aureus ATCC 6538 + S. epidermidis, read-out: IC50 (planktonic growth)

Row | IC50 (E. coli TG1; [5]) | IC50 (E. coli TG1; [6]) | IC50 (E. coli TG1; [7]) | IC50 (E. coli TG1; [8]) | IC50 (P. aeruginosa PA14; [9]) | IC50 (P. aeruginosa PA14; [10]) | IC50 (P. aeruginosa PA14; [11]) | IC50 (P. aeruginosa PA14; [12]) | IC50 [1, 13] | IC50 [1, 14] | IC50 ([2]; mixed S. aureus ATCC 6538 + S. epidermidis biofilm, read-out: BIC50) | IC50 [2, 15] | SMILES | IC50 (S. aureus ATCC 6538; [3]) | IC50 (S. aureus ATCC 6538; [4]) | IC50 (S. aureus ATCC 6538; ATCC6538, read-out: BIC50 (concentration needed to inhibit biofilm formation by 50%), S. aureus ATCC 6538, 37°C) | IC50 (S. aureus ATCC 6538; ATCC6538, read-out: IC50 (concentration needed to inhibit planktonic growth by 50%), S. aureus ATCC 6538, 37°C, planktonic OD600) | IC50 ([1]; 72 h, mixed E. coli TG1 + P. aeruginosa PA14, 37°C, read-out: IC50 (planktonic growth)) | IC50 ([1]; 72 h, mixed E. coli TG1 + P. aeruginosa PA14 biofilm, 37°C, read-out: BIC50) | IC50 ([2]; 48 h, mixed S. aureus ATCC 6538 + S. epidermidis biofilm, read-out: BIC50) | IC50 ([2]; 48 h, mixed S. aureus ATCC 6538 + S. epidermidis, read-out: IC50 (planktonic growth))
1 | 29.5 µM | 91.9 µM | 330 µM | 6.1 µM | > 400 µM | 222 µM | > 400 µM | 115 µM | > 400 µM | > 400 µM | 1.1 µM | ~22.2 µM | CCCCCCCCn1c(-c2ccc(Cl)cc2)cnc1NCC(C)C [Compound 8b] | 9.3 µM | 5.8 µM | – | – | – | – | – | –
2 | ~47.2 µM | 51.2 µM | 41.2 µM | 10.2 µM | > 400 µM | 75.3 µM | > 400 µM | 66 µM | > 400 µM | 6.6 µM | – | ~26.1 µM | CCCCCCCCn1c(-c2ccccc2)cnc1NCC(C)C [Compound 8a] | 17.9 µM | ~22.9 µM | – | – | – | – | – | –

Row | SMILES | IC50 (E. coli TG1; [5]) | IC50 (E. coli TG1; [6]) | IC50 (E. coli TG1; [7]) | IC50 (E. coli TG1; [8]) | IC50 (P. aeruginosa PA14; [9]) | IC50 (P. aeruginosa PA14; [10]) | IC50 (P. aeruginosa PA14; [11]) | IC50 (P. aeruginosa PA14; [12]) | IC50 [1, 13] | IC50 [1, 14] | IC50 ([2]; mixed S. aureus ATCC 6538 + S. epidermidis biofilm, read-out: BIC50) | IC50 [2, 15] | IC50 (S. aureus ATCC 6538; [3]) | IC50 (S. aureus ATCC 6538; [4]) | IC50 (S. aureus ATCC 6538; ATCC6538, read-out: BIC50 (concentration needed to inhibit biofilm formation by 50%), S. aureus ATCC 6538, 37°C) | IC50 (S. aureus ATCC 6538; ATCC6538, read-out: IC50 (concentration needed to inhibit planktonic growth by 50%), S. aureus ATCC 6538, 37°C, planktonic OD600) | IC50 ([1]; 72 h, mixed E. coli TG1 + P. aeruginosa PA14, 37°C, read-out: IC50 (planktonic growth)) | IC50 ([1]; 72 h, mixed E. coli TG1 + P. aeruginosa PA14 biofilm, 37°C, read-out: BIC50) | IC50 ([2]; 48 h, mixed S. aureus ATCC 6538 + S. epidermidis biofilm, read-out: BIC50) | IC50 ([2]; 48 h, mixed S. aureus ATCC 6538 + S. epidermidis, read-out: IC50 (planktonic growth))
3 | CCCCCn1c(-c2ccccc2)cnc1N [Compound 1] | – | – | ~47.8 µM | 34.1 µM | 2.1 µM | – | 104 µM | 45.2 µM | – | – | – | – | – | – | 59.3 µM | 231 µM | 60.7 µM | 74.3 µM | 44.2 µM | ~356 µM
